# Where a SMILES comes first, the peptide text is derived from it. Bridges are numbered along the chain shown (N, C = ends). [ ]: non-standard residue; d: D form. The star is where a group is joined. Phe(3,4,5-F3) = N[C@@H](Cc1cc(F)c(F)c(F)c1)C(=O)O; Phe(3,4-Cl2) = N[C@@H](Cc1ccc(Cl)c(Cl)c1)C(=O)O; Phe(3,4-F2) = N[C@@H](Cc1ccc(F)c(F)c1)C(=O)O; Phe(2,4-F2) = N[C@@H](Cc1ccc(F)cc1F)C(=O)O; Bip = N[C@@H](Cc1ccc(-c2ccccc2)cc1)C(=O)O; Phe(2-Cl) = N[C@@H](Cc1ccccc1Cl)C(=O)O; Phe(2-Me) = Cc1ccccc1C[C@H](N)C(=O)O; Carboxymethyl = O=C(O)C*; Orn = NCCC[C@H](N)C(=O)O; Dab = NCC[C@H](N)C(=O)O; Dap = NC[C@H](N)C(=O)O
# Biological target: T1, human PD-1 / PD-L1-Ig binding on Jurkat cell line over-expressing human PD-1 (Jurkat-PD-1) (Homo sapiens, UniProt Q15116)
# T1 construct: expressed in transfected cells; host or cells: Jurkat
# Assay: Jurkat-PD-1 Cell Binding High-Content Screening Assay (CBA)
# Format: cell-based
# Details: Jurkat-PD-1 cells, PE-labeled PD-L1-Ig 20 nM final; read-out: Jurkat HPD1_PDL1 IC50
# Procedure, shortened: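 Binding of fluorescent PD-L1-Ig (phycoerythrin linked via the Ig tag, 20 nM final) to PD-1-overexpressing Jurkat cells was imaged after a 2 h, 37° C compound pretreatment and 1 hour ligand incubation.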
# T1 sequence (Q15116 25-288): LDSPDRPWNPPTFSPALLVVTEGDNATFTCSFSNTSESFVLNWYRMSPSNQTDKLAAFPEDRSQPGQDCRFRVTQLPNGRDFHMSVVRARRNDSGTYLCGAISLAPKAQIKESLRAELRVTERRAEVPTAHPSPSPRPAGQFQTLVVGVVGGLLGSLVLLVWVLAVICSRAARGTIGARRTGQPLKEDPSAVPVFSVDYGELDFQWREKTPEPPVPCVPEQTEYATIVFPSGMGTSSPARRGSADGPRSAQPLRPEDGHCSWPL
row,Structure (SMILES),IC50
1,"CC(C)C[C@H]1NC(=O)[C@H](CCCN)NC(=O)[C@H](CCC(=O)O)NC(=O)[C@H](Cc2ccc(-c3ccccc3)cc2)NC(=O)[C@H](C(C)C)NC(=O)[C@H](Cc2c[nH]c3ccccc23)NC(=O)[C@H](CC(=O)O)NC(=O)[C@H](Cc2ccc(OCC(=O)O)cc2)NC(=O)[C@H](CN)NC(=O)CSC[C@@H](C(=O)N[C@@H](C)C(N)=O)NC(=O)[C@H]([C@@H](C)O)NC(=O)[C@H](C(C)C)NC(=O)[C@H](Cc2ccc(F)cc2F)NC(=O)[C@H](CCN)NC1=O [Compound 1479] ({CH2CO}-[Dap]Y(Carboxymethyl)DWV[Bip]E[Orn][dL][Dab][Phe(2,4-F2)]VTCA-NH2; thioether N-14)",347 nM
2,"CC(C)C[C@H]1NC(=O)[C@H](CCCN)NC(=O)[C@H](CCC(=O)O)NC(=O)[C@H](Cc2ccc(-c3ccccc3)cc2)NC(=O)[C@H](C(C)C)NC(=O)[C@H](Cc2c[nH]c3ccccc23)NC(=O)[C@H](CC(=O)O)NC(=O)[C@H](Cc2ccc(OCC(=O)O)cc2)NC(=O)[C@H](CN)NC(=O)CSC[C@@H](C(=O)N[C@@H](C)C(N)=O)NC(=O)[C@H]([C@@H](C)O)NC(=O)[C@H](C(C)C)NC(=O)[C@H](Cc2cc(F)c(F)c(F)c2)NC(=O)[C@H](CCN)NC1=O [Compound 1480] ({CH2CO}-[Dap]Y(Carboxymethyl)DWV[Bip]E[Orn][dL][Dab][Phe(3,4,5-F3)]VTCA-NH2; thioether N-14)",150 nM
3,"CC(C)C[C@H]1NC(=O)[C@H](CCCN)NC(=O)[C@H](CCC(=O)O)NC(=O)[C@H](Cc2ccc(-c3ccccc3)cc2)NC(=O)[C@H](C(C)C)NC(=O)[C@H](Cc2c[nH]c3ccccc23)NC(=O)[C@H](CC(=O)O)NC(=O)[C@H](Cc2ccc(OCC(=O)O)cc2)NC(=O)[C@H](CN)NC(=O)CSC[C@@H](C(=O)N[C@@H](C)C(N)=O)NC(=O)[C@H]([C@@H](C)O)NC(=O)[C@H](C(C)C)NC(=O)[C@H](Cc2ccc(Cl)c(Cl)c2)NC(=O)[C@H](CCN)NC1=O [Compound 1481] ({CH2CO}-[Dap]Y(Carboxymethyl)DWV[Bip]E[Orn][dL][Dab][Phe(3,4-Cl2)]VTCA-NH2; thioether N-14)",67.2 nM
4,"CC(C)C[C@H]1NC(=O)[C@H](CCCN)NC(=O)[C@H](CCC(=O)O)NC(=O)[C@H](Cc2ccc(-c3ccccc3)cc2)NC(=O)[C@H](C(C)C)NC(=O)[C@H](Cc2c[nH]c3ccccc23)NC(=O)[C@H](CC(=O)O)NC(=O)[C@H](Cc2ccc(OCC(=O)O)cc2)NC(=O)[C@H](CN)NC(=O)CSC[C@@H](C(=O)N[C@@H](C)C(N)=O)NC(=O)[C@H]([C@@H](C)O)NC(=O)[C@H](C(C)C)NC(=O)[C@H](Cc2ccc(F)c(F)c2)NC(=O)[C@H](CCN)NC1=O [Compound 1482] ({CH2CO}-[Dap]Y(Carboxymethyl)DWV[Bip]E[Orn][dL][Dab][Phe(3,4-F2)]VTCA-NH2; thioether N-14)",104 nM
5,CC(C)C[C@H]1NC(=O)[C@H](CCCN)NC(=O)[C@H](CCC(=O)O)NC(=O)[C@H](Cc2ccc(-c3ccccc3)cc2)NC(=O)[C@H](C(C)C)NC(=O)[C@H](Cc2c[nH]c3ccccc23)NC(=O)[C@H](CC(=O)O)NC(=O)[C@H](Cc2ccc(OCC(=O)O)cc2)NC(=O)[C@H](CN)NC(=O)CSC[C@@H](C(=O)N[C@@H](C)C(N)=O)NC(=O)[C@H]([C@@H](C)O)NC(=O)[C@H](C(C)C)NC(=O)[C@H](Cc2ccccc2Cl)NC(=O)[C@H](CCN)NC1=O [Compound 1483] ({CH2CO}-[Dap]Y(Carboxymethyl)DWV[Bip]E[Orn][dL][Dab][Phe(2-Cl)]VTCA-NH2; thioether N-14),34.8 nM
6,Cc1ccccc1C[C@@H]1NC(=O)[C@H](CCN)NC(=O)[C@@H](CC(C)C)NC(=O)[C@H](CCCN)NC(=O)[C@H](CCC(=O)O)NC(=O)[C@H](Cc2ccc(-c3ccccc3)cc2)NC(=O)[C@H](C(C)C)NC(=O)[C@H](Cc2c[nH]c3ccccc23)NC(=O)[C@H](CC(=O)O)NC(=O)[C@H](Cc2ccc(OCC(=O)O)cc2)NC(=O)[C@H](CN)NC(=O)CSC[C@@H](C(=O)N[C@@H](C)C(N)=O)NC(=O)[C@H]([C@@H](C)O)NC(=O)[C@H](C(C)C)NC1=O [Compound 1484] ({CH2CO}-[Dap]Y(Carboxymethyl)DWV[Bip]E[Orn][dL][Dab][Phe(2-Me)]VTCA-NH2; thioether N-14),12.3 nM

# From US20250163104A1, “MACROCYCLIC IMMUNOMODULATORS” (priority 2021, published 2025)
